Experimental data: patent US10399932B2, “Inhibitors of indoleamine-2,3-dioxygenase for the treatment of cancer” (BRISTOL-MYERS SQUIBB COMPANY, priority 2015, dated 2019)

The molecules below were run against human IDO1 (Homo sapiens, UniProt P14902) (assay: Assessment of human IDO-1 inhibitory activity in HEK cells (human IDO1/HEK293 cells, Ehrlich reagent, absorbance at 490 nm)). Conditions: In Vitro Potency in the HEK Human IDO-1 Cellular Assay.
Assay type: cell-based
Design: expressed in transfected cells
Description: Exemplary compounds were tested for inhibition of IDO activity.
HEK293 cells were transfected with a pCDNA-based mammalian expression vector harboring human IDO1 cDNA (NM 002164.2) by electroporation. They were cultured in medium (DMEM with 10% FBS) containing 1 mg/ml G418 for two weeks. Clones of HEK293 cells that stably expressed human IDO1 protein were selected and expanded for IDO inhibition assay.
The human IDO1/HEK293 cells were seeded at 10,000 cells per 50 μL per well with RPMI/phenol red free media contains 10% FBS in a 384-well black wall clear bottom tissue culture plate (Matrix Technologies LLC) 100 nL of certain concentration of compound was then added to each well using ECHO liquid handling systems. The cells were incubated for 20 hours in 37° C. incubator with 5% CO2.
The compound treatments were stopped by adding trichloroacetic acid (Sigma-Aldrich) to a final concentration at 0.2%. The cell plate was further incubated at 50° C. for 30 minute. The equal volume supernatant (20 μL) and 0.2% (w/v) Ehrlich reagent (4-dimethylaminobenzaldehyde, Sigma-Aldrich) in glacial acetic acid were mixed in a new clear bottom 384-well plate. This plate was then incubated at room temperature for 30 minute. The absorbance at 490 nm was measured on Envision plate reader.
Compound IC50 values were calculated using the counts of 500 nM of a reference standard treatment as one hundred percent inhibition, and counts of no compound but DMSO treatment as zero percent inhibition.

Sequence of human IDO1 (P14902 whole entry): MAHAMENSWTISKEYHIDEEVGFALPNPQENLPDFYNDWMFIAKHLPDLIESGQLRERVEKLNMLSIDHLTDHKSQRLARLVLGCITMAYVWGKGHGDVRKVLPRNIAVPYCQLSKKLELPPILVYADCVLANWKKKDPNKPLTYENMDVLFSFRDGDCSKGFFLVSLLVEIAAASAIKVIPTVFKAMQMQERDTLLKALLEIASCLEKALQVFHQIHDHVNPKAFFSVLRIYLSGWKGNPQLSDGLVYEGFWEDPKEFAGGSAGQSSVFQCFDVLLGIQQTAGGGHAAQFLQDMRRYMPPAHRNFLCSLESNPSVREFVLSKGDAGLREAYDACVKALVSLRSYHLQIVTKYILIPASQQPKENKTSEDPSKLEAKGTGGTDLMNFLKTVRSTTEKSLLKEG

| Structure (SMILES) | IC50 [nM] |
| --- | --- |
| CC(C)C(CC(=O)O)c1ccc(N(C)C(C)(C)C)c(Nc2nc3ccccc3o2)c1 (single isomer, unassigned) [Example 1008-2] | > 50 |
| CCC(CC(=O)O)c1ccc(N2CCC[C@H]2C(C)(C)O)c(Nc2cnc(OCC3CC3)nc2)c1 (single isomer, unassigned) [Example 838] | > 50 |
| CCC(CC(=O)O)c1ccc(N(CC(C)C)C(C)C)c(Nc2ccc(Cl)cc2)c1 (single isomer, unassigned) [Example 728, 3-(3-((4-Chlorophenyl)amino)-4-(isobutyl(isopropyl)amino)phenyl)pentanoic acid] | < 5 |
| CCC(CC(=O)O)c1ccc(N(CC2CC2)C2CCOCC2)c(Nc2ccc3nc(C)sc3c2)c1 (single isomer, unassigned) [Example 707, 3-(4-((Cyclopropylmethyl)(tetrahydro-2H-pyran-4-yl)amino)-3-((2-methylbenzo[d]thiazol-6-yl)amino)phenyl)pentanoic acid] | < 50 |
| Cc1ccc(NC(=O)Nc2cc(C(CC(=O)O)C3CC3)ccc2N(CC(C)C)C2CCOCC2)cc1 (single isomer, unassigned) [1202 E1] | < 5 |
| CCc1ccc(Nc2cc(C(CC)CC(=O)O)ccc2N2CCC[C@H]2C(C)(C)O)cc1 (single isomer, unassigned) [Example 835] | > 50 |
| CCC(CC(=O)O)c1ccc(N(CC2CC2)C2CCOCC2)c(Nc2ccc(C#N)cc2)c1 (single isomer, unassigned) [Example 712, 3-(3-((4-cyanophenyl)amino)-4-((cyclopropylmethyl)(tetrahydro-2H-pyran-4-yl)amino)phenyl)pentanoic acid] | < 5 |
| CCC(CC(=O)O)c1cc(F)c(N(CC(C)C)CC(C)C)c(Nc2ccc(OCC(F)(F)F)cc2)c1 (single isomer, unassigned) [Example 114, 3-(4-(diisobutylamino)-3-fluoro-5-((4-(2,2,2-trifluoroethoxy)phenyl)amino)phenyl)pentanoic acid] | > 50 |
| CCOc1cc(Nc2cc(C(CC)CC(=O)O)ccc2N(CC(C)C)C2CCCCC2)ccc1Cl (single isomer, unassigned) [Example 653, 3-(3-((4-chloro-3-ethoxyphenyl)amino)-4-(cyclohexyl(isobutyl)amino)phenyl)pentanoic acid] | < 50 |
| CC(CC(=O)O)c1ccc(N(CC(C)(C)O)C2CCOCC2)c(Nc2ccc(Cl)cc2)c1 (single isomer, unassigned) [Example 193, 3-(3-((4-chlorophenyl)amino)-4-((2-hydroxy-2-methylpropyl)(tetrahydro-2H-pyran-4-yl)amino)phenyl)butanoic acid] | < 5 |
| CCN(c1ccc(C(CC(=O)O)c2ccccc2)cc1NC(=O)Nc1ccc(OC)cc1F)C1CCOCC1 (single isomer, unassigned) [Example 596, 3-(4-(ethyl(tetrahydro-2H-pyran-4-yl)amino)-3-(3-(2-fluoro-4-methoxyphenyl)ureido)phenyl)-3-phenylpropanoic acid] | > 50 |
| CCC(CC(=O)O)c1ccc(N2CCC[C@H]2C(C)(C)O)c(Nc2ccc(OCC3CC3)cc2)c1 (single isomer, unassigned) [Example 834] | > 50 |
| COCC(CC(=O)O)c1ccc(N(CC(C)C)C2CCCCC2)c(NC(=O)Nc2cc(C)on2)c1 (single isomer, unassigned) [Example 987-2] | < 50 |
| CCC(CC(=O)O)c1ccc(N2CC3CC2CN3Cc2ccccc2)c(NC(=O)Nc2ccc(C)cc2)c1 (single isomer, unassigned) [667 E1] | > 50 |
| CCC(CC(=O)O)c1cc(F)c(N(CC(C)C)CC(C)C)c(NC(=O)Nc2ccc(Cl)cc2F)c1 (single isomer, unassigned) [Example 981-2] | < 5 |
| CCC(CC(=O)O)c1ccc(N(CC2CC2)C2CCOCC2)c(Nc2ccc3c(c2)OC(F)(F)O3)c1 (single isomer, unassigned) [Example 710, 3-(4-((cyclopropylmethyl)(tetrahydro-2H-pyran-4-yl)amino)-3-((2,2-difluorobenzo[d][1,3]dioxol-5-yl)amino)phenyl)pentanoic acid] | < 5 |
| CCOc1ccc(Nc2cc([C@H](CC)CC(=O)O)ccc2N(CC)C2CCOCC2)cc1 (single isomer, unassigned) [Example 514] | < 5 |
| CCC(CC(=O)O)c1ccc(N2CCC[C@H]2C(C)(C)O)c(NC(=O)Nc2ccc(OC)cc2F)c1 (single isomer, unassigned) [Example 830] | > 50 |
| CC(C)CN(c1ccc(C(C)CC(=O)O)cc1NC(=O)Nc1cncnc1)C1CCOCC1 (single isomer, unassigned) [Example 964, 3-(4-(isobutyl(tetrahydro-2H-pyran-4-yl)amino)-3-(3-(pyrimidin-5-yl)ureido)phenyl) butanoic acid] | > 50 |
| CCC(CC(=O)O)c1cc(F)c(N(CC(C)C)CC(C)C)c(Nc2ccc(F)cc2)c1 (single isomer, unassigned) [Example 116, 3-(4-(diisobutylamino)-3-fluoro-5-((4-fluorophenyl)amino)phenyl)pentanoic acid] | < 5 |
| Cc1ccc(NC(=O)Nc2cc(C(CC(=O)O)C3CC3)ccc2N(CC(C)C)C2CCOCC2)cc1 (single isomer, unassigned) [1202 E2] | < 5 |
| CCC(CC(=O)O)c1ccc(N(CC2CC2)C2CCOCC2)c(Nc2ccc(Cl)cc2)c1 (single isomer, unassigned) [Example 708, 3-(3-((4-chlorophenyl)amino)-4-((cyclopropylmethyl)(tetrahydro-2H-pyran-4-yl)amino)phenyl)pentanoic acid] | < 5 |
| CCN(c1ccc([C@@H](COC)CC(=O)O)cc1Nc1ccc2c(c1)OC(F)(F)O2)C1CCOCC1 (single isomer, unassigned) [Example 378] | < 50 |

Other lines, results leading:

| IC50 [nM] | Structure (SMILES) |
| --- | --- |
| < 5 | CCC(CC(=O)O)c1cc(NC(=O)Nc2ccc(C)cc2)c(N(CC(C)C)C2CCCCC2)cc1F (single isomer, unassigned) [Example 1107, 3-(4-(Cyclohexyl(isobutyl)amino)-2-fluoro-5-(3-(p-tolyl)ureido)phenyl)pentanoic acid] |
| > 50 | COCC(CC(=O)OC)c1ccc(N(CC(C)C)C2CCC(OC)CC2)c(NC(=O)Nc2ccc(Cl)cc2F)c1 (racemic) [Example 1148] |
| < 5 | CCC(CC(=O)O)c1cc(NC(=O)Nc2ccc3c(c2)OCO3)c(N(CC(C)C)C2CCCCC2)cc1F (single isomer, unassigned) [Example 1112, 3-(5-(3-(Benzo[d][1,3]dioxol-5-yl)ureido)-4-(cyclohexyl(isobutyl)amino)-2-fluorophenyl)pentanoic acid] |
| < 5 | CCC(CC(=O)O)c1cc(NC(=O)Nc2ccc(C)cc2)c(N(CC(C)C)CC(C)C)cc1F (single isomer, unassigned) [Example 1130, 3-(4-(Diisobutylamino)-2-fluoro-5-(3-(p-tolyl)ureido)phenyl)pentanoic acid] |
| < 5 | COCC(CC(=O)O)c1cc(F)c(N(CC(C)C)CC(C)C)c(NC(=O)Cc2ccc(Cl)cc2F)c1 (single isomer, unassigned) [Example 1187, 3-(3-(2-(4-Chloro-2-fluorophenyl)acetamido)-4-(diisobutylamino)-5-fluorophenyl)-4-methoxybutanoic acid] |
| < 5 | CCC(CC(=O)O)c1cc(NC(=O)Nc2cnc(OC)nc2)c(N(CC(C)C)CC(C)C)cc1F (single isomer, unassigned) [Example 1142, 3-(4-(Diisobutylamino)-2-fluoro-5-(3-(2-methoxypyrimidin-5-yl)ureido)phenyl)pentanoic acid] |
| < 5 | CCC(CC(=O)O)c1cc(NC(=O)Nc2cnc(C)nc2)c(N(CC(C)C)C2CCCCC2)cc1F (single isomer, unassigned) [Example 1127, 3-(4-(Cyclohexyl(isobutyl)amino)-2-fluoro-5-(3-(2-methylpyrimidin-5-yl)ureido)phenyl)pentanoic acid] |
| < 50 | CCOc1ccc(CC(=O)Nc2cc(C(COC)CC(=O)O)cc(F)c2N(CC(C)C)CC(C)C)cc1 (single isomer, unassigned) [Example 1193, 3-(4-(Diisobutylamino)-3-(2-(4-ethoxyphenyl)acetamido)-5-fluorophenyl)-4-methoxybutanoic acid] |
| < 5 | CCC(CC(=O)O)c1ccc(N(CC(C)C)C2CCCCC2)c(NC(=O)Cc2ccc(C)cc2)c1 (racemic) [Example 1084] |
| < 5 | CCC(CC(=O)O)c1ccc(N(CC(C)C)C2CCCCC2)c(NC(=O)Cc2ccc(C#N)cc2)c1 (racemic) [Example 1086] |
| < 50 | Cc1cc(NC(=O)Nc2cc(C(CC(=O)O)C3CC3)ccc2N(CC(C)C)C2CCOCC2)no1 (single isomer, unassigned) [Example 1201 Enantiomer 2, 3-Cyclopropyl-3-(4-(isobutyl(tetrahydro-2H-pyran-4-yl)amino)-3-(3-(5-methylisoxazol-3-yl)ureido)phenyl)propanoic acid] |
| < 5 | CCOc1ccc(NC(=O)Nc2cc(C(CC)CC(=O)O)c(F)cc2N(CC(C)C)CC(C)C)cc1 (single isomer, unassigned) [Example 1133, 3-(4-(Diisobutylamino)-5-(3-(4-ethoxyphenyl)ureido)-2-fluorophenyl)pentanoic acid] |
